Results reported in ChEMBL document CHEMBL4402531, “Recent advances in α,β-unsaturated carbonyl compounds as mitochondrial toxins” (Eur J Med Chem, 2019).

Assays:
DU-145 = experiment: Cytotoxicity against human DU145 cells assessed as reduction in cell viability relative to control; assay type: functional
LNCaP = experiment: Cytotoxicity against human LNCAP cells assessed as reduction in cell viability relative to control; assay type: functional
MCF7 [1] = experiment: Cytotoxicity against human MCF7 cells assessed as reduction in cell viability at 0.01 uM after 48 hrs by fluorescence assay relative to control; assay type: functional
MCF7 [2] = experiment: Cytotoxicity against human MCF7 cells assessed as reduction in cell viability at 5 uM after 48 hrs by fluorescence assay relative to control; assay type: functional
PC-3 [3] = experiment: Cytotoxicity against human PC3 cells assessed as reduction in cell viability relative to control; assay type: functional
LNCaP C4-2 = experiment: Cytotoxicity against human C4-2 cells assessed as reduction in cell viability relative to control; assay type: functional
K562 [4] = experiment: Induction of apoptosis in human K562 cells; assay type: functional, cell-based
K562 [5] = experiment: Cell cycle arrest in human K562 cells assessed as accumulation at G0 phase; assay type: functional, cell-based
K562 [6] = experiment: Cell cycle arrest in human K562 cells assessed as accumulation at G1 phase; assay type: functional, cell-based
SiHa [7] = experiment: Cytotoxicity against human SiHa cells assessed as reduction in cell viability after 24 hrs by MTT assay; assay type: functional, cell-based
HeLa [8] = experiment: Cytotoxicity against human HeLa cells assessed as reduction in cell viability after 24 hrs by MTT assay; assay type: functional, cell-based
MCF7 [9] = experiment: Cytotoxicity against human MCF7 cells assessed as reduction in cell viability after 24 to 48 hrs by MTS assay; assay type: functional, cell-based
MDA-MB-231 = experiment: Cytotoxicity against human MDA-MB-231 cells assessed as reduction in cell viability after 24 to 48 hrs by MTS assay; assay type: functional, cell-based
WI-38 = experiment: Cytotoxicity against human WI38 cells assessed as reduction in cell viability after 24 to 48 hrs by MTT assay; assay type: cell-based
MSTO-211H = experiment: Cytotoxicity against human MSTO-211H cells assessed as reduction in cell viability after 24 to 48 hrs by MTS assay; assay type: functional, cell-based
HK-2 = experiment: Cytotoxicity against human HK2 cells assessed as reduction in cell viability after 24 to 48 hrs by MTT assay; assay type: cell-based
NCI-H28 = experiment: Cytotoxicity against human NCI-H28 cells assessed as reduction in cell viability after 24 to 48 hrs by MTS assay; assay type: functional, cell-based
U2OS = experiment: Cytotoxicity against human U2OS cells assessed as reduction in cell viability after 48 hrs; assay type: functional, cell-based
MG-63 = experiment: Cytotoxicity against human MG63 cells assessed as reduction in cell viability after 48 hrs; assay type: functional, cell-based; conditions: MG-63, 48 h
PC-3 [10] = experiment: Cytotoxicity against human PC3 cells assessed as reduction in cell viability; assay type: functional, cell-based
CNE = experiment: Cytotoxicity against human CNE1 cells assessed as reduction in cell viability after 48 hrs; assay type: functional, cell-based
CNE-2 = experiment: Cytotoxicity against human CNE2 cells assessed as reduction in cell viability after 48 hrs; assay type: functional, cell-based; conditions: CNE-2, 48 h
HeLa [11] = experiment: Cytotoxicity against human HeLa cells assessed as reduction in cell viability; assay type: functional, cell-based
MCF7 [12] = experiment: Cytotoxicity against human MCF7 cells assessed as reduction in cell viability; assay type: functional, cell-based
HCT-116 = experiment: Cytotoxicity against human HCT116 cells assessed as reduction in cell viability after 72 hrs by MTT assay; assay type: functional, cell-based; conditions: HCT-116, 72 h
MGC-803 = experiment: Cytotoxicity against human MGC803 cells assessed as reduction in cell viability after 24 hrs by MTT assay; assay type: functional, cell-based; conditions: MGC-803, 24 h
HGC-27 = experiment: Cytotoxicity against human HGC27 cells assessed as reduction in cell viability after 24 hrs by MTT assay; assay type: functional, cell-based; conditions: HGC-27, 24 h
SGC-7901 = experiment: Cytotoxicity against human SGC7901 cells assessed as reduction in cell viability after 24 hrs by MTT assay; assay type: functional, cell-based; conditions: SGC-7901, 24 h
Homo sapiens = species on record: Homo sapiens; experiment: Inhibition of ERK (unknown origin) phosphorylation relative to control; conditions: concentration not given here
[13] = biological target: Dual specificity mitogen-activated protein kinase kinase; MEK1/2 (Homo sapiens) (UniProt P36507+Q02750); experiment: Inhibition of MEK (unknown origin) phosphorylation relative to control; assay type: protein assay; conditions: concentration not given here
[14] = biological target: RAF proto-oncogene serine/threonine-protein kinase (Homo sapiens) (UniProt P04049); experiment: Inhibition of c-RAF (unknown origin) phosphorylation relative to control; conditions: concentration not given here
HeLa [15] = experiment: Cytotoxicity against human HeLa cells assessed as reduction in cell viability after 72 hrs by MTT assay; assay type: functional, cell-based
L02 = experiment: Cytotoxicity against human LO2 cells assessed as reduction in cell viability after 48 hrs by MTT assay; assay type: functional, cell-based; conditions: L02, 48 h
Ca-Ski = experiment: Cytotoxicity against human CaSki cells assessed as reduction in cell viability after 72 hrs; assay type: functional, cell-based
SiHa [16] = experiment: Cytotoxicity against human SiHa cells assessed as reduction in cell viability after 72 hrs by MTT assay; assay type: functional, cell-based
PC-12 = experiment: Cytotoxicity against rat PC12 cells assessed as reduction in cell viability after 48 hrs by MTT assay; assay type: functional, cell-based; conditions: PC-12, 48 h
C-33-A = experiment: Cytotoxicity against human C33A cells assessed as reduction in cell viability after 72 hrs; assay type: functional, cell-based
HeLa [17] = experiment: Cytotoxicity against human HeLa cells assessed as reduction in cell viability after 72 hrs; assay type: functional, cell-based
SiHa [18] = experiment: Cytotoxicity against human SiHa cells assessed as reduction in cell viability after 72 hrs; assay type: functional, cell-based
HepG2 = experiment: Growth inhibition of human HepG2 cells; assay type: functional, cell-based
HL-60 = experiment: Cytotoxicity against human HL60 cells assessed as reduction in cell viability; assay type: functional, cell-based

Chain of Dual specificity mitogen-activated protein kinase kinase; MEK1/2 (Homo sapiens) (P36507 whole entry, looked up): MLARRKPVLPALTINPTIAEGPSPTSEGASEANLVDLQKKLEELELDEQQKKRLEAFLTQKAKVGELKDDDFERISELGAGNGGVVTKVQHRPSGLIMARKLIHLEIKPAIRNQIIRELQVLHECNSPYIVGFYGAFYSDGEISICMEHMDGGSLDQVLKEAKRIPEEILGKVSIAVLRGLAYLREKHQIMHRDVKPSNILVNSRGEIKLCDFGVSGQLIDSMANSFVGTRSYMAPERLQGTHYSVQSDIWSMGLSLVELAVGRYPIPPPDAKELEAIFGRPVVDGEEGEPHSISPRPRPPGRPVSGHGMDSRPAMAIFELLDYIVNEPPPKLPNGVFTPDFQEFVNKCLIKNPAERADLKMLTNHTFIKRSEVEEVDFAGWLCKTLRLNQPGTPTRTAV
Chain of Dual specificity mitogen-activated protein kinase kinase; MEK1/2 (Homo sapiens) (Q02750 whole entry, looked up): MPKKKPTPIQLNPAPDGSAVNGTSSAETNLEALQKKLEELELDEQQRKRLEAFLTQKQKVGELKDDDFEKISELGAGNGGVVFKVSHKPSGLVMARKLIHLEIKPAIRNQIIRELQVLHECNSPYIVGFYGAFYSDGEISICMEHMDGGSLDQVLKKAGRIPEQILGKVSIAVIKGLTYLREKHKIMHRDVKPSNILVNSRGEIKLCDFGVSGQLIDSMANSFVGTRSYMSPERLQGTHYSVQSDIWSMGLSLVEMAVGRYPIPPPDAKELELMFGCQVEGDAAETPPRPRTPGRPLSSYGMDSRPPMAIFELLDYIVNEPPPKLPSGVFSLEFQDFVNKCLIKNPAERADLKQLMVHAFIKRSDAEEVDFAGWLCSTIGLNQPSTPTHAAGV
Chain of RAF proto-oncogene serine/threonine-protein kinase (Homo sapiens) (P04049 whole entry): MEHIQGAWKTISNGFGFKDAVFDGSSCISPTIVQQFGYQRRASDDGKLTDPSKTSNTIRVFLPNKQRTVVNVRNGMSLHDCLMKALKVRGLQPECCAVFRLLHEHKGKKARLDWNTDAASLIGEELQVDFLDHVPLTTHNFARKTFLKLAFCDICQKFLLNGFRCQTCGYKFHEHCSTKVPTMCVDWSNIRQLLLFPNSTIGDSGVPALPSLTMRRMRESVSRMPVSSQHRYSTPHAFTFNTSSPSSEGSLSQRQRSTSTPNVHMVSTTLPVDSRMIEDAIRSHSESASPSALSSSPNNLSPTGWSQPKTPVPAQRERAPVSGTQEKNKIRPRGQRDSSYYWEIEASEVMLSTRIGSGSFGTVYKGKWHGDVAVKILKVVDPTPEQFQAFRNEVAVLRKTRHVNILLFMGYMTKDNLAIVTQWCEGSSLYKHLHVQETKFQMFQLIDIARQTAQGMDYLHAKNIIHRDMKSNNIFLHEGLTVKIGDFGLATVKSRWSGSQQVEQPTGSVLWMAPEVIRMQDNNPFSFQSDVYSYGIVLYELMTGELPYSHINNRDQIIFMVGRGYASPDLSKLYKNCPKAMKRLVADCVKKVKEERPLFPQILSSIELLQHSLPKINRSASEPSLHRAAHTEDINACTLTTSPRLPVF

COc1cc(O)c(CC=C(C)C)c(O)c1C(=O)/C=C/c1ccc(O)cc1 [XANTHOHUMOL]
Activity (DU-145): 38%
Activity (LNCaP): 41%
Activity (MCF7 [1]): 39.6%
Activity (MCF7 [2]): -57.3%
Activity (PC-3 [3]): 42%
Activity (LNCaP C4-2): 30%

COc1cc(/C=C/C(=O)C(=Cc2ccncc2)C(=O)/C=C/c2ccc(O)c(OC)c2)ccc1O
IC50 (K562 [4]): 400 to 3200 nM
IC50 (K562 [5]): 600 nM
IC50 (K562 [6]): 400 to 3200 nM

C=CC(C)(C)c1cc(/C=C/C(=O)c2ccc(O)cc2)c(OC)cc1O [LICOAGROCHACONE A]
IC50 (SiHa [7]): 42.2 µM
IC50 (HeLa [8]): 48.5 µM
IC50 (MCF7 [9]): 22 µM
IC50 (MDA-MB-231): 22 µM
IC50 (WI-38): 90.2 µM
IC50 (MSTO-211H): 26 µM
IC50 (HK-2): 88.7 µM
IC50 (NCI-H28): 30 µM

O=C(/C=C(\O)c1ccccc1)c1ccccc1O [2',beta-DIHYDROXYCHALCONE]
IC50 (U2OS): 19.6 µM
IC50 (MG-63): 23.8 µM

O=C(/C=C/c1ccccc1)c1ccc(O)cc1O [2',4'-DIHYDROXYCHALCONE]
IC50 (PC-3 [10]): 8.08 to 13.8 µM

C=C1C(=O)[C@]23[C@H](O)[C@@H]1CC[C@H]2[C@]12CCCC(C)(C)[C@H]1[C@H](O)[C@@]3(O)OC2
IC50 (CNE): 1260 nM
IC50 (CNE-2): 1520 nM

CCCOc1ccc(C(=O)/C=C/c2ccccc2)c(O)c1
IC50 (PC-3 [10]): 8.08 to 13.8 µM

COc1cc(O)c(C(=O)/C=C/c2ccccc2)c2c1C=CC(C)(CCC=C(C)C)O2 (stereo not given) [BOESENBERGIN A]
IC50 (HeLa [11]): 20 µM
IC50 (MCF7 [12]): 20 µM

CCOc1ccc(C(=O)/C=C/c2ccccc2)c(O)c1
IC50 (PC-3 [10]): 8.08 to 13.8 µM

COc1cccc(OC)c1C(=O)/C=C/c1c2ccccc2nc2ccccc12
IC50 (HCT-116): 4.2 µM

COc1ccc(Br)cc1C(=O)/C=C/c1ccc(S(C)(=O)=O)cc1
IC50 (MGC-803): 3.57 to 5.61 µM
IC50 (HGC-27): 3.57 to 5.61 µM
IC50 (SGC-7901): 3.57 to 5.61 µM

COc1ccc(C(=O)/C=C/c2ccccc2)c(O)c1
IC50 (PC-3 [10]): 8.08 to 13.8 µM

O=C(/C=C/c1ccc(O)cc1)/C(C(=O)Nc1ccccc1)=C(O)/C=C/c1ccc(O)cc1
inhibition (Homo sapiens): 87%
inhibition [13]: 91%
inhibition [14]: 93%

O=C(/C=C/c1ccc(O)cc1)c1ccc(O)cc1O [ISOLIQUIRITIGENIN]
IC50 (HeLa [15]): 58.1 µM
IC50 (L02): > 1 mM
IC50 (Ca-Ski): 39.1 µM
IC50 (SiHa [16]): 53.8 µM
IC50 (PC-12): 17.8 µM
IC50 (C-33-A): 32.8 µM
IC50 (HeLa [17]): 58.1 µM
IC50 (SiHa [18]): 53.8 µM

CCCCC/C=C/C(=O)CCc1ccc(O)c(OC)c1 [SHOGAOL]
IC50 (HepG2): 88 µM

CCn1cc(C(=O)O)c(=O)c2c3c(ccc21)NC(=O)/C3=C1/C(=O)Nc2ccc(Cl)cc21
IC50 (HL-60): 4.27 µM

CC(=O)Oc1ccc(C(=O)/C=C/c2ccccc2)c(O)c1
IC50 (PC-3 [10]): 8.08 to 13.8 µM
